The target of test [1] is T1, GST-PPAR beta/delta LBD (Homo sapiens, UniProt Q03181).
T1 construct: GST-PPAR beta/delta LBD (GST=glutathione S-transferase); purchased Invitrogen, Darmstadt, Germany
T1 sequence (Q03181 211-439 limits assumed): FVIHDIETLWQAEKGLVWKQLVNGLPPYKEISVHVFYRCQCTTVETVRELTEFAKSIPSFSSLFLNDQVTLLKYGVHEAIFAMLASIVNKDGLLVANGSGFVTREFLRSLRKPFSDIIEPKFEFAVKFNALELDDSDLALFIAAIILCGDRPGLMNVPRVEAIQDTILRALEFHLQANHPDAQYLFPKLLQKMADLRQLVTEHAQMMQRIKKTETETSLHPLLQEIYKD
The test is described as follows: Ligand-induced binding of corepressor peptide SMRT-ID2, TR-FRET. It counts as biochemical. The note with it: concentration dependent. As for the experimental part:
FIG. 2: Induction of corepressor peptide binding to GST-PPAR beta/delta ligand binding domain (LBD) in vitro in dependency of the concentration of the substances of this invention comparative compound (CC) 2, compound 1 (A), compound 2 (B), compound 3 (C), compound 4 (D) and compound 5 (E). The interaction of fluorescein-labeled SMRT-ID2 peptide with recombinant GST-PPAR beta/delta LBD bound to a terbium-labeled anti-GST antibody is determined by TR-FRET analysis. Shown is the ratio of fluorescence intensity at 520 nm (fluorescein emission, excited by terbium emission) and 495 nm (terbium emission). All data points represent average values of triplicates (+/−standard deviation).
B) The ligand-induced binding of the commercially available fluorescein-labeled corepressor peptide SMRT-ID2 ([…]) (Invitrogen, Darmstadt, Germany) to GST-PPAR beta/delta is for example measured by TR-FRET analysis using a terbium-labeled anti-GST antibody in a VICTOR3V Multilabel Counter (WALLAC 1420; PerkinElmer Life and Analytical Sciences, Rodgau, Germany). The measurement is performed in a buffer composed of 100 mM KC, 20 mM Tris pH 7.9, 0.01% Triton X100 and 1 μg/μL bovine serum albumin.
A general note: Time-resolved FRET reads energy transfer from a long-lived donor to a nearby acceptor.

For test [2], the system named is ANGPTL4 gene expression. Nature of the test: ANGPTL4 gene expression (qPCR) in WPMY-1 myofibroblasts. Conditions: Homo sapiens, 6 h; WPMY-1 cells, six hours treatment; read-out: IC50 (mean inhibitory concentration), endogenous ANGPTL4 expression. It counts as cell-based, human. On the procedure: (§1) FIG. 5: Influence of the substances of this invention comparative compound (CC) 2, compound 1, compound 5, compound 2 and compound 3 on ANGPTL4 gene expression. • (A) Comparison of relative ANGPTL4 expression, (B) mean inhibitory concentration of substances of this invention. (A) Human myofibroblasts (WPMY-1) are treated for 24 hours with the substances of this invention (1 μM), then RNA is isolated, the cDNA synthesized and analyzed by qPCR, normalized to L27 gene expression. (B) Titration of the effect of substances of this invention on the endogenous ANGPTL4 expression in WPMY-1 cells (left) or peritoneal mouse macrophages (right) after cells have been treated for six hours with the substances of this invention compound 1 and compound 2, respectively; RNA isolation, cDNA synthesis and qPCR as described for (A). The relative expression is calculated in relation to DMSO-treated cells. All values are average values of triplicates (+1-standard deviation). Asterisks (***, **, *) indicate significant differences to DMSO-treated cells (***: p<0.001 after t-test; *: p <0.05).
The influence of substances of this invention on PPAR-beta/delta regulated genes like for example ANGPTL4 which codes for the angiopoietin-like protein ANGPTL4 is assessed in different cells with a confluence of 70% to 80% in a 6-well cell culture plate. For this purpose, cultivated human myofibroblasts (WPMY-1), peritoneal mouse macrophages or cells of the human breast cancer cell line MDA-MB-231 are treated for 24 hours with 1 μM of the substances of this invention. Cells of the breast cancer cell line are in addition stimulated for 6 hours with TGF-beta2 (2 ng/ml) which is commercially available. Subsequently, RNA is isolated from the cells by procedures known to the expert and analyzed by quantitative PCR (qPCR, real time qPCR, RT-qPCR) also known to those skilled in the art. […]
(In general: Quantitative PCR measures a nucleic acid by following its amplification.)

Test [3] has as its system ANGPTL4 gene expression. The test is described as follows: ANGPTL4 gene expression (qPCR) in peritoneal mouse macrophages. It counts as cell-based. The note with it: Macrophage, 6 h, six hours treatment, read-out: IC50 (mean inhibitory concentration), endogenous ANGPTL4 expression. On the procedure:
as §1, with “All values are average values of triplicates (+1-standard deviation). Asterisks (***, **, *) indicate significant differences to DMSO-treated cells (***: p<0.001 after t-test; *: p <0.05).” left out
The influence of substances of this invention on PPAR-beta/delta regulated genes like for example ANGPTL4 which codes for the angiopoietin-like protein ANGPTL4 is assessed in different cells with a confluence of 70% to 80% in a 6-well cell culture plate. […] Subsequently, RNA is isolated from the cells by procedures known to the expert and analyzed by quantitative PCR (qPCR, real time qPCR, RT-qPCR) also known to those skilled in the art. […]

Test [4] relates to ANGPTL4 gene expression. Nature of the test: ANGPTL4 expression (qPCR) in breast cancer cell line MDA-MB-231. The format is cell-based, human. Conditions: for TGF-beta2-induced ANGPTL4 expression: MDA-MB-231, 1 μM pre-treatment 24 hours, then TGF-beta2 2 ng/ml for 6 hours. As for the experimental part: FIG. 6: Influence of the substances of this invention compound 1 and compound 5 on the induction of ANGPTL4 expression by TGF-beta2 in the breast cancer cell line MDA-MB-231. • The human breast cancer cell line MDA-MB-231 is pre-treated for 24 hours with 1 μM of the substances of this invention compound 1 or compound 5, respectively, and subsequently stimulated with TGF-beta2 (2 ng/ml) for 6 hours. The relative ANGPTL4 expression is determined by qPCR.
The influence of substances of this invention on PPAR-beta/delta regulated genes like for example ANGPTL4 which codes for the angiopoietin-like protein ANGPTL4 is assessed in different cells with a confluence of 70% to 80% in a 6-well cell culture plate. For this purpose, cultivated human myofibroblasts (WPMY-1), peritoneal mouse macrophages or cells of the human breast cancer cell line MDA-MB-231 are treated for 24 hours with 1 μM of the substances of this invention. Cells of the breast cancer cell line are in addition stimulated for 6 hours with TGF-beta2 (2 ng/ml) which is commercially available. Subsequently, RNA is isolated from the cells by procedures known to the expert and analyzed by quantitative PCR (qPCR, real time qPCR, RT-qPCR) also known to those skilled in the art. For this, cDNA is synthesized using 0.25 μg to 1 μg of RNA, oligo(dT)-primers and a commercially available cDNA synthesis kit. qPCR is then conducted in a Mx3000P RT-qPCR system (Stratagene, La Jolla, Calif., USA) according to the manufacturer's instructions with 40 cycles, an annealing temperature of 60° C., and for example human ANGPTL4 primers (fw: […]; rv: […]) and the ribosomal I27 (fw: […]; rv: […]) as normalizing gene known to the expert in this field. […] The respective IC50 value (mean inhibitory concentration) for substances of this invention compound 1 and compound 2 is depicted in FIG. 5 B and is maximal 20 nM in WPMY-1 cells and maximal 30 nM in peritoneal mouse macrophages, respectively.

In test [5] the test system is ANGPTL4 gene expression. Nature of the test: Stimulus-induced ANGPTL4 expression in human fibroblasts. It counts as cell-based.

The values below come from US20150018411A1, “COMPOUNDS AS PPAR BETA/DELTA INHIBITORS FOR TREATING PPAR BETA/DELTA-MEDIATED DISEASES” (PHILIPPS-UNIVERSITAT MARBURG, priority 2011, published 2015).

Molecules are shown by their SMILES. Entries after “also recorded” stand apart in the source; their conditions may differ.

Regarding `CCCCCCNc1ccc(NS(=O)(=O)c2ccsc2C(=O)OC)c(OC)c1` [compound 1, methyl 3-(N-(4-(hexylamino)-2-methoxyphenyl)sulfamoyl)thiophene-2-carboxylate], the “induction of interaction of PPAR beta/delta LBD with corepressor peptide SMRT-ID2” value in test [1] was “clearly demonstrate the interaction; also recorded: induce”. For the same compound, the IC50 in test [2] is at most 20 nM; in test [3] it was at most 30 nM. Moreover, the “TGF-beta2-induced ANGPTL4 expression” value in test [4] is listed as “loss of TGF-beta2-induced ANGPTL4 expression”. The ANGPTL4 expression result in test [4] (breast cancer cell line MDA-MB-231-luc21H4) is “drastic reduction”. Further, the “induction of ANGPTL4 expression by TGF-beta1, TGF-beta2, dexamethasone or TPA” value in test [5] was “significantly be reduced”.
With `CCCCCCNc1ccc(NS(=O)(=O)c2ccsc2C(=O)OC)cc1OC` [compound 2, methyl 3-(N-(4-(hexylamino)-3-methoxyphenyl)sulfamoyl)thiophene-2-carboxylate], the “induction of interaction of PPAR beta/delta LBD with corepressor peptide SMRT-ID2” value in test [1] was “clearly demonstrate the interaction; also recorded: induce”. Further, the IC50 in test [2] was at most 20 nM; in test [3] it was at most 30 nM.
Take `COC(=O)c1sccc1S(=O)(=O)Nc1ccc(NC(C)(C)C)cc1OC` [compound 5, methyl 3-(N-(4-(tert-butylamino)-2-methoxyphenyl)sulfamoyl)thiophene-2-carboxylate]: in test [4], the “TGF-beta2-induced ANGPTL4 expression” value is “does not influence the induction of ANGPTL4 expression”.
